Measurements published in US10131679B2, “Substituted dihydropyrrolopyrazole compound” (UBE INDUSTRIES, LTD., priority 2014, dated 2018).

Tests used:
CDK7 = biological target: T1, CDK7 (Homo sapiens, UniProt P50613); experiment: CDK7 enzyme inhibition test; assay type: biochemical; details: Ki=IC50/(1+S/Km); 33P bound to MBP, [γ-33P]ATP, 30° C. for 20 minutes; read-out: Ki value of CDK7 inhibitory activity
T1 construct: purchased Carna Biosciences, Inc. 04-108
Procedure: CDK7 Enzyme Inhibition Test
The preparation of a buffer solution was performed by mixing a N-2-hydroxyethylpiperazine-N′-2-ethanesulfonic acid buffer solution (HEPES buffer solution) (pH 7.4), dithiothreitol (DTT), Triton X-100, and magnesium chloride (MgCl2). A 500 μM [γ-^33P]ATP solution was used by diluting a 10 mM ATP solution and a commercially available [γ-^33P]ATP solution (manufactured by PerkinElmer, Inc., Code No. NEG-302H) with the buffer solution. A CDK7 solution was used by diluting commercially available CDK7 (manufactured by Carna Biosciences, Inc., Catalog No. 04-108) with the buffer solution. A substrate solution was used by diluting myelin basic protein (MBP) with the buffer solution. As for the preparation of a reaction solution, the buffer solution, the 500 μM [γ-^33P]ATP solution, the CDK7 solution, and the substrate solution were mixed at 4° C. to obtain a reaction solution.
CDK7 enzyme reaction was performed by adding 5 μL of a test compound solution prepared with 10% dimethyl sulfoxide (DMSO)/90% injectable distilled water, and 45 μL of the reaction solution to a 1.5 mL microtube at 4° C. and reacting in the microtube at 30° C. for 20 minutes in a water bath incubator. After the reaction, a 10% aqueous trichloroacetic acid (TCA) solution was added to each microtube while cooled to 4° C., and mixed to terminate the reaction. The resultant was left standing at 4° C. for 10 minutes and then centrifuged in a centrifuge, and the supernatant was discarded. Next, a 2% aqueous TCA solution was added, mixed, and then centrifuged in a centrifuge, and the supernatant was discarded. This washing operation was performed twice. After the washing, precipitates were dissolved in a 1 N aqueous sodium hydroxide (NaOH) solution, and the energy quantity (radioactivity) of the reaction product was measured with a liquid scintillation counter.
The calculation of the inhibitory activity of the test compound against CDK7 was performed as a test compound concentration inhibiting 50% of the amount of ^33P bound to MBP (IC50 value) by using EXSUS (version 8.0.0 or version 8.0.1, manufactured by CAC Exicare Corp.).
The calculation of a Ki value was performed according to the following calculation expression. S means the concentration of ATP contained in the reaction solution, and Km means a Michaelis-Menten constant. Ki=IC50/(1+S/Km)

[1] = tested on: human large intestine cancer cell line (HCT-116); experiment: Human large intestine cancer (HCT-116) cell growth inhibition test; assay type: cell-based; details: 72 h, HCT-116, culture for 3 days, sulforhodamine B absorbance
Procedure: Human Large Intestine Cancer (HCT-116) Cell Growth Inhibition Test
The measurement of a human large intestine cancer cell growth inhibitory effect was carried out by modifying the method of Simak et al. (Cancer Research, 69, 6208 (2009)).
A human large intestine cancer cell line (HCT-116) (manufactured by DS Pharma Biomedical Co., Ltd., Cat. No. EC91091005) was cultured in McCoy's 5a (manufactured by GIBCO/Thermo Fisher Scientific, Inc., REF. 16600-082) medium containing 10% FBS (manufactured by GIBCO/Thermo Fisher Scientific, Inc., REF. 10082-147) and 1% penicillin/streptomycin/amphotericin B (manufactured by GIBCO/Thermo Fisher Scientific, Inc., REF. 15240-096) and inoculated at 1.0×10^3 cells/well in a 96-well plate (manufactured by Corning Inc., REF. 353072). After overnight culture in a carbon dioxide incubator, it was replaced with a fresh McCoy's 5a medium containing 10% FBS on the next day, and a test compound dissolved in DMSO (manufactured by Wako Pure Chemical Industries, Ltd., Code No. 043-07216) (final DMSO concentration: 0.1%) was added and left standing in a carbon dioxide incubator. After culturing for 3 days, the absorbance of each well was measured by using In Vitro Toxicology Assay Kit Sulforhodamine B based (manufactured by Sigma-Aldrich Co. LLC., Pcode 1001910706).
The rate of inhibition of cell growth at each concentration was calculated from the test compound concentration and the absorbance of sulforhodamine B, and the concentration of the test compound necessary for inhibiting 50% of cell growth (IC50 value) was calculated by using EXSUS (version 8.0.0 or version 8.0.1, manufactured by CAC Exicare Corp.).

T1 sequence (P50613 whole entry): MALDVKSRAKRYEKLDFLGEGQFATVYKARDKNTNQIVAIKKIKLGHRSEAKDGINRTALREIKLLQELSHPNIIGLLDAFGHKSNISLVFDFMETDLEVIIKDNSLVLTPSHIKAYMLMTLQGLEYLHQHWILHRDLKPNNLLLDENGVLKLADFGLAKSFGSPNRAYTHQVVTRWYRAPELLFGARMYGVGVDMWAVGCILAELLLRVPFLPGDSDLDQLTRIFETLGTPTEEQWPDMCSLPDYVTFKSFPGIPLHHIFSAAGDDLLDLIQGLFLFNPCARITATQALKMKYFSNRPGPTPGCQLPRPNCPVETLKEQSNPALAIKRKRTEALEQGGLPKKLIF
T1 sequence (P51946 whole entry partner): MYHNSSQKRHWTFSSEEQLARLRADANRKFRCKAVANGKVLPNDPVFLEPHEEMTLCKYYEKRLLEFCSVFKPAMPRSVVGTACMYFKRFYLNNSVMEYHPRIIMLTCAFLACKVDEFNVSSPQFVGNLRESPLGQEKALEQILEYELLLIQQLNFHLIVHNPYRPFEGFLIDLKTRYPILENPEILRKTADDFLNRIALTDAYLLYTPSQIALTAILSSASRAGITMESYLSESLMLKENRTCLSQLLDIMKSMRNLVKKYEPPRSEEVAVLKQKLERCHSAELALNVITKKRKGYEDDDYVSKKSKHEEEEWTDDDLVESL
T1 sequence (P51948 whole entry partner): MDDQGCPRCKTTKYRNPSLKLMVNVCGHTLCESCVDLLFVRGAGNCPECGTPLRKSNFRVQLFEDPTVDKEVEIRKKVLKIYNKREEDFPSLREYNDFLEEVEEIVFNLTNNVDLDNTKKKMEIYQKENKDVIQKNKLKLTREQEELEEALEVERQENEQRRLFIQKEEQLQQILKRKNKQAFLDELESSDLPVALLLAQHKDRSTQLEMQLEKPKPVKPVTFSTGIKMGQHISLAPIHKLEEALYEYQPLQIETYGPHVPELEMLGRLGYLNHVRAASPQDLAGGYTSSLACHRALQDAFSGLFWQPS

| SMILES | Ki (CDK7) [µM] | IC50 [1] [µM] |
| --- | --- | --- |
| CC1(C)c2[nH]nc(NC(=O)C3([Si](C)(C)C)CC3)c2CN1C(=O)[C@H](CO)c1ccccc1 [III-592, (S)—N-[5-(3-Hydroxy-2-phenylpropanoyl)-6,6-dimethyl-1,4,5,6-tetrahydropyrrolo[3,4-c]pyrazol-3-yl]-1-(trimethylsilyl)cyclopropanecarboxamide] | ≤ 0.05 | ≤ 0.5 |
| CC(C)[C@@H](CC(C)(C)O)NC(=O)N1Cc2c(NC(=O)C3([Si](C)(C)C)CCC3)n[nH]c2C1(C)C [IV-815, (R)—N-(5-Hydroxy-2,5-dimethylhexan-3-yl)-6,6-dimethyl-3-[1-(trimethylsilyl)cyclobutanecarboxamido]-4,6-dihydropyrrolo[3,4-c]pyrazole-5(1H)-carboxamide] | ≤ 0.05 | ≤ 0.5 |
| CC1(C)c2[nH]nc(NC(=O)C3([Si](C)(C)C)CCC3)c2CN1C(=O)NC[C@@H](O)c1ccccc1 [IV-787, (S)—N-(2-Hydroxy-2-phenylethyl)-6,6-dimethyl-3-[1-(trimethylsilyl)cyclobutanecarboxamido]-4,6-dihydropyrrolo[3,4-c]pyrazole-5(1H)-carboxamide] | ≤ 0.05 | ≤ 0.5 |
| COC(C(=O)N1Cc2c(NC(=O)C3([Si](C)(C)C)CCC3)n[nH]c2C1(C)C)c1cccs1 (single isomer, unassigned; (+)) [IV-1547, (+)-N-{5-[2-Methoxy-2-(thiophen-2-yl)acetyl]-6,6-dimethyl-1,4,5,6-tetrahydropyrrolo[3,4-c]pyrazol-3-yl}-1-(trimethylsilyl)cyclobutanecarboxamide] | ≤ 0.05 | – |
| CC(C)(CO)C(NC(=O)N1Cc2c(NC(=O)C3([Si](C)(C)C)CCC3)n[nH]c2C1(C)C)c1cccc(F)c1 (single isomer, unassigned; (-)) [IV-920, (−)-N-[1-(3-Fluorophenyl)-3-hydroxy-2,2-dimethylpropyl]-6,6-dimethyl-3-[1-(trimethylsilyl)cyclobutanecarboxamido]-4,6-dihydropyrrolo[3,4-c]pyrazole-5(1H)-carboxamide] | ≤ 0.05 | – |

The remaining lines, values ahead:

| Ki (CDK7) [µM] | IC50 [1] [µM] | SMILES |
| --- | --- | --- |
| ≤ 0.05 | ≤ 0.5 | CC1(C)c2[nH]nc(NC(=O)C3([Si](C)(C)C)CCC3)c2CN1C(=O)N[C@H](CO)c1ccccc1Cl [IV-959, (S)—N-[1-(2-Chlorophenyl)-2-hydroxyethyl]-6,6-dimethyl-3-[1-(trimethylsilyl)cyclobutanecarboxamido]-4,6-dihydropyrrolo[3,4-c]pyrazole-5(1H)-carboxamide] |
| ≤ 0.05 | ≤ 0.5 | CC1(C)c2[nH]nc(NC(=O)C3([Si](C)(C)C)CCC3)c2CN1C(=O)NC[C@H](O)c1ccccc1 [IV-786, (R)—N-(2-Hydroxy-2-phenylethyl)-6,6-dimethyl-3-[1-(trimethylsilyl)cyclobutanecarboxamido]-4,6-dihydropyrrolo[3,4-c]pyrazole-5(1H)-carboxamide] |
| ≤ 0.05 | ≤ 0.5 | CC1(C)c2[nH]nc(NC(=O)C3([Si](C)(C)C)CCC3)c2CN1C(=O)[C@@H](CO)c1ccccc1 [IV-1215, (R)—N-[5-(3-Hydroxy-2-phenylpropanoyl)-6,6-dimethyl-1,4,5,6-tetrahydropyrrolo[3,4-c]pyrazol-3-yl]-1-(trimethylsilyl)cyclobutanecarboxamide] |
| ≤ 0.05 | – | CN(C)CC(Oc1ccccc1)C(=O)N1Cc2c(NC(=O)C3([Si](C)(C)C)CCC3)n[nH]c2C1(C)C (stereo not shown) [IV-1372, N-{5-[3-(Dimethylamino)-2-phenoxypropanoyl]-6,6-dimethyl-1,4,5,6-tetrahydropyrrolo[3,4-c]pyrazol-3-yl}-1-(trimethylsilyl)cyclobutanecarboxamide] |
| ≤ 0.05 | – | CC1(C)c2[nH]nc(NC(=O)C3([Si](C)(C)C)CCC3)c2CN1C(=O)NC(CO)c1cccnc1 (stereo not shown) [IV-542, N-[2-Hydroxy-1-(pyridin-3-yl)ethyl]-6,6-dimethyl-3-[1-(trimethylsilyl)cyclobutanecarboxamido]-4,6-dihydropyrrolo[3,4-c]pyrazole-5(1H)-carboxamide] |
